Type in all cases: cell-based
For experiment [1], the system named is SH-SY5Y human neuroblastoma cells. Put plainly: Protection against hydrogen peroxide-induced cell death. To be noted: Homo sapiens; SH-SY5Y cells, 1 h preincubation, 100 μM hydrogen peroxide, 24 h, LDH readout of live cells. The procedure:
The aim of this assay is to determine the neuroprotective effect of the compounds when human neuroblastoma cells are exposed to the oxidative stress induced by hydrogen peroxide, which leads to cell death. Therefore the protective effect of the compounds was measured by monitoring cell survival using a suitable commercial kit (Cytotoxicity Detection Kit, Roche Diagnostics GmbH, Mannheim, Germany) based on the quantification of the lactate dehydrogenase activity obtained from lysates of the remaining live cells with a colorimetric assay yielding absorbance at 492 nm as the final readout.
SH-SY5Y human neuroblastoma cells were seeded into 96-well culture plate at a density of 10,000 cells/well. Cells were preincubated for one hour with different concentrations of the compound at a 1% (v/v) DMSO concentration in an equivolumetric mixture of Minimum Essential Medium (MEM) and Nutrient Mixture HAM F12 supplemented with 10% foetal bovine serum, 100 U/ml penicillin, 100 μg/ml streptomycin, 1 mM each of non-essential aminoacids (commercial preparation from GIBCO, Paisley, UK) and 2 mM L-glutamine. Hydrogen peroxide was then added to reach 100 μM and the incubation was extended for 24 h. Then the medium was removed and live cells, which remained attached to the bottom of the plate, were lysed by incubating them during 5 min with 50 μl of 1% (v/v) Triton X-100 in Krebs-Hepes buffer (10 mM Hepes pH7.3 with 145 mM NaCl, 5.5 mM KCl, 1 mM MgCl2, 2 mM CaCl2 and 1 mM glucose). This lysate was used to measure LDH activity using the commercial kit according to the manufacturer's instructions. In the culture plate several wells were included as a control of cell death, in these wells the cells were preincubated with 1% (v/v) DMSO before hydrogen peroxide addition. Likewise, several wells were included as control for full cell survival, in these wells the addition of H2O2 was omitted. The absorbance of each tested sample was normalized to that of the control wells, so that for every compound concentration the percentage of protective effect was calculated with the following equation:
[formula] where “S” is the absorbance of the sample being considered, “E” is the average absorbance of wells used as control of full cell survival and “B” is the average absorbance of wells used as control of cell death. The values obtained at every compound concentration were finally used to calculate the EC50 (i.e., the concentration causing 50% of protective effect) of the tested compound. For that purpose the data were fitted to a classical 4-parameters isotherm equation using the nonlinear regression function of GraphPad™ Prism 5.0 (GraphPad Software Inc.), such equation is described below:
[formula] where “L” is the lower asymptote of the theoretical sigmoidal curve, “H” is the higher asymptote, “C” is the concentration of compound and “n” is the Hill coefficient.

Experiment [2] relates to secretion of amyloid peptide β1-40 (Aβ1-40). Put plainly: Inhibition of β-amyloid secretion (CHO7w cells stably transfected with human APP, ELISA). To be noted: CHO-7W, 24 h incubation, range stated for the listed compounds together. The procedure: The inhibition caused by the compounds on the secretion of amyloid peptide β1-40 (Aβ1-40) was determined by measuring the levels of this peptide in cell supernatants after incubating the cells with several concentrations of the tested compound. A CHO7w cell line, stably transfected with human amyloid precursor protein (APP), was used. Cells were dispensed in 96-well culture plates (5,000 cells/well) and grown in DMEM supplemented with 2% (v/v) foetal bovine serum, 100 U/ml penicillin, 100 μg/ml streptomycin, 2 mM L-glutamine and 200 μg/ml G418 in the presence of several concentrations of the tested compound which had been previously dissolved in DMSO (1% (v/v) DMSO final concentration). After a 24 h incubation the amount of Aβ1-40 secreted to the medium was measured with an ELISA-based commercial kit (Human Amyloid β-40 ELISA High Sensitivity Kit, Millipore, Billerica, Mass., USA) using absorbance at 450 nm as the final readout. In the culture plate several wells were included as a control for lack of Aβ1-40 secretion, in these wells the cells were incubated in the presence of 16% (v/v) DMSO to inhibit cell growth therefore abolishing Aβ1-40 secretion. Likewise, several wells were also included as a control for full Aβ1-40 secretion, in these wells the cells were grown in the presence of 1% (v/v) DMSO. The absorbance of each tested sample was normalized to that of the control wells, so that for every compound concentration the percentage of inhibition was calculated with the following equation:
[formula] where “S” is the absorbance of the sample being considered, “E” is the average absorbance of wells lacking Aβ1-40 secretion and “B” is the average absorbance of wells with full Aβ1-40 secretion. The inhibition values obtained at every compound concentration were fitted to a 4-parameters isotherm equation, as described above, to calculate the […] (i.e., the concentration causing 50% of inhibition of Ab1-40 secretion).
For orientation: In an ELISA, binding on a coated surface is turned into a signal by an enzyme label.

The subject of experiment [3] is secretion of soluble amyloid precursor protein-α (sAPPα). Put plainly: Stimulation of sAPPα secretion (CHO7w cells stably transfected with human APP, AlphaLISA). To be noted: for EC50 / Emax: Homo sapiens, CHO-7W, CHO7w cells, 24 h incubation, range stated for the listed compounds together; for Emax: read-out: maximum effect (sAPPα secretion). As for the experimental part: The effect of the compounds on the stimulation of the secretion of soluble amyloid precursor protein-α (sAPPα) was determined by measuring the levels of this protein in cell supernatants after incubating the cells with several concentrations of the tested compound. A CHO7w cell line, stably transfected with human APP, was used. Cells were dispensed in 96-well culture plates (5,000 cells/well) and grown in DMEM supplemented with 2% (v/v) foetal bovine serum, 100 U/ml penicillin, 100 μg/ml streptomycin, 2 mM L-glutamine and 200 μg/ml G418 in the presence of several concentrations of the tested compound which had been previously dissolved in DMSO (1% (v/v) DMSO final concentration). After 24 h of incubation 5 μl of the culture supernatants were withdrawn and their sAPPα. concentration was measured with a commercial kit (AlphaLISA® Amyloid Precursor Protein-α Secreted Research kit, PerkinElmer, Waltham, Mass., USA) following manufacturer's instructions. In the culture plate several wells were included as a control for background sAPPα secretion, in these wells the cells were incubated with 1% (v/v) DMSO. The results obtained for each tested sample were normalized by using the following equation:
[formula] where “S” is the sAPPα concentration of the sample being considered, “B” is the average sAPPα concentration of wells used for background secretion and “M” is the sAPPα concentration of wells yielding the highest value. These normalized values obtained at every compound concentration were finally used to calculate the EC50 of the tested compound fitting them to a 4-parameters isotherm equation as already described. The average EC50s ranges are reported in Table 4 together with the maximum observed effect (and the concentration at which this effect was reached), this latter value was calculated for each compound according to the following equation:
[formula] with “M” and “B” as defined above.
Background: Bead proximity is the source of the signal in Alpha formats.

Usually EC50 stands for the concentration that produces a half-maximal response. The low end stands for an effect from little substance, the high end for a need for much substance. As usually defined, the IC50 is the concentration that gives 50% inhibition. Lower therefore signals greater potency.

As to `CS(=O)(=O)c1cc(CNS(=O)(=O)c2ccc(Cl)s2)nc(-c2ccccn2)c1` [Compound 33, 5-Chloro-thiophene-2-sulfonic acid (4-methanesulfonyl-[2,2′]bipyridinyl-6-ylmethyl)-amide], the EC50 in experiment [1] was 1020 nM. The compound further had a half-maximal inhibitory concentration (IC50) in experiment [2] of 300 to 42000 nM. Besides, in experiment [3], the EC50 was 500 to 11000 nM and the Emax lay within 250 to 500%.
With `COc1cc(CNS(=O)(=O)c2cc(Cl)sc2Cl)nc(-c2ccccn2)c1` [Compound 19, 2,5-Dichloro-thiophene-3-sulfonic acid (4-methoxy-[2,2′]bipyridinyl-6-ylmethyl)-amide], the EC50 in experiment [1] turned out to be 1300 nM. In experiment [2], this compound returned a half-inhibitory concentration (IC50) of 300 to 42000 nM. For the same compound, in experiment [3], the EC50 is 500 to 11000 nM and the Emax lay in the range of 250 to 500%.
On the same counts, the results for `COc1cc(CNS(=O)(=O)c2cc(F)cc(F)c2)nc(-c2ccccn2)c1` [Compound 10] are 1170 nM, 300 to 42000 nM, 500 to 11000 nM and 250 to 500%.
`CCN(CC)CCOc1cc(CNS(=O)(=O)c2ccc(Cl)s2)nc(-c2ccccn2)c1` [Compound 30, 5-Chloro-thiophene-2-sulfonic acid [4-(2-diethylamino-ethoxy)-[2,2′]bipyridinyl-6-ylmethyl]-amide] had an EC50 in experiment [1] of 290 nM. The IC50 in experiment [2] was 300 to 42000 nM. Also, in experiment [3], the EC50 lay in the range of 500 to 11000 nM and the Emax was 250 to 500%.
`COc1cc(CNS(=O)(=O)c2ccc(Cl)s2)nc(-c2ccccn2)c1` [Compound 2, 5-Chloro-thiophene-2-sulfonic acid (4-methoxy-[2,2′]bipyridinyl-6-ylmethyl)-amide]: the EC50 in experiment [1] was 800 nM; in experiment [3] it was 500 to 11000 nM. Further, the IC50 in experiment [2] lay within 300 to 42000 nM. Also, in experiment [3], the Emax was in the range of 250 to 500%. The “rank of maximum effect among compounds tested (sAPPα secretion)” value in experiment [3] (comparison among tested compounds) was “maximum effect was obtained”.

These data come from patent publication US9284296B2, “Bipyridine sulfonamide derivatives for the treatment of neurodegenerative diseases or conditions” (AUBERGINE PHARMACEUTICALS LLC, priority 2010, dated 2016).
